According to patent US20250009697A1, “COMPOSITION FOR INCREASING AMOUNT OF FOOD INGESTED AND/OR IMPROVING ANOREXIA, AND COMPOSITION FOR ACTIVATING TRANSIENT RECEPTOR POTENTIAL ANKYRIN 1” (HOUSE FOODS GROUP INC., priority 2021, published 2025):

Legend:
[1] = Anorexia Improving Test 2: cumulative amounts of food ingested of mice, rhein; type: in vivo
Protocol: Male ICR mice were housed in individual cages in which ALPHA-dri (Shepherd Specialty Papers) was laid, and were acclimatized and raised for at least one week or more while a powder feed (CE-2, CLEA Japan, Inc.) was given to the mice by using a powder feeder for mice (SN-950, Shinano Manufacturing Co., Ltd.). Then, for several days before the experiment, handling and oral administration training using a feeding needle (FG4202, Fuchigami Kikai Co., Ltd.) were conducted every day.
To 9 week-old mice under ad libitum feeding conditions, a carrier solution (containing 2% of dimethyl sulfoxide and 98% of a 0.5% methyl cellulose solution in volume ratio) or a rhein solution (obtained by dissolving 8.53 mg of rhein in 1 mL of the carrier solution) was orally administered from 9:20 a.m. (10 mL/kg body weight). […] Then, a feeder the mass of which had been measured in advance was set in the cage at 9:30 a.m. The masses of the feeder and the feed spilled in the cage 0.5, 1, 2, and 3 hours after the start of the feeding experiment were measured, and the ingested mass (g) at each time was measured (n=6).

Human TRPV1 (hTRPV1) = target: T1, Human TRPV1 (hTRPV1) (Homo sapiens, UniProt Q8NER1); assay: TRPA1 Activation Test 2: intracellular Ca2+ imaging assay 2-2, hTRPV1 stably expressing cell line; type: cell-based; conditions: for TRPV1 activation rate: Table 9
T1 construct: expressed in transfected cells
Protocol: (§1) DNAs encoding genes described in the following Table 2 were inserted into pcDNA 5/TO vector (Invitrogen) to prepare various expression vectors.
(§2) These expression vectors were transfected into T-REx™_293 cells (Invitrogen) by a conventional method using Lipofectamine LTX (Invitrogen). Then, various transfectants were cultured and cloned by a conventional method using Dulbecco's Modified Eagle Medium (DMEM, Nacalai Tesque Inc.), containing 10% fetal bovine serum (FBS, Cytiva), […] of hygromycin B, and 5 μg/mL of blasticidin S, as a drug selection medium to obtain a hTRPA1 stably expressing cell line, a hTRPV1 stably expressing cell line, and a hTRPM8 stably expressing cell line.
(§3) A hTRPA1 stably expressing cell line in which expression of hTRPA1 had been induced in advance by a conventional method was prepared in a 96 well clear bottom plate, and the hTRPA1 activating action of rhein (produced by Tokyo Chemical Industry Co., Ltd.) was tested. Specifically, after each well was washed with PBS, 50 μL of an assay buffer (Hanks' balanced salt solution containing no calcium ion or magnesium ion that contained 1 mM of CaCl2 dihydrate, 20 mM of HEPES, and 0.1% BSA) containing calcium fluorescent indicator Calbryte™ 520 AM (produced by AAT Bioquest) in a final concentration of 4 μM was added, followed by incubating at 33° C. for 45 minutes. After washing with the assay buffer, 100 μL of the assay buffer was added to each well. […] Then, a well in which an assay buffer containing ionomycin (having a final concentration of 10 μM after the addition) instead of the test samples was added was also prepared as a reference for fluorescence intensity.
(§4) The measurement was continued from the start of the measurement up to 120 seconds, and the TRPA1 activation ability of the test samples was calculated in accordance with the following formula.
(§5) Activation rate (%)=(Fmax[s]−F0)/(Fmax[i]−F0)×100 • Fmax[s]: The maximum value of the fluorescence intensity when the test sample or positive control was added • F0: The average value of the fluorescence intensity for 20 seconds after the start of the measurement (base line) • Fmax[i]: The maximum value of the fluorescence intensity when ionomycin was added
(§6) The TRPA1 activation ability of each test sample was measured in the same manner as in the above (2) except the test was conducted with A-967079 (1 μM), which is a TRPA1-specific antagonist, or without A-967079. In addition, intracellular Ca^2+ imaging assay was conducted in the same manner as in the above (2) except that a hTRPV1 stably expressing cell line, a hTRPM8 stably expressing cell line, or a Mock cell was used instead of the hTRPA1 stably expressing cell line. […]

Human TRPA1 (hTRPA1) = target: T2, Human TRPA1 (hTRPA1) (Homo sapiens, UniProt O75762); assay: TRPA1 Activation Test 2: intracellular Ca2+ imaging assay 2-1 to 2-3, hTRPA1 stably expressing cell line; type: cell-based; conditions: for TRPA1 activation rate: Table 7; for TRPA1 activation rate, With antagonist: A-967079 1 μM; for TRPA1 activation rate, With antagonist / TRPA1 activation rate, Without antagonist: Table 8
T2 construct: expressed in transfected cells
Protocol: as §1, §2
A hTRPA1 stably expressing cell line in which expression of hTRPA1 had been induced in advance by a conventional method was prepared in a 96 well clear bottom plate, and the hTRPA1 activating action of rhein (produced by Tokyo Chemical Industry Co., Ltd.) was tested. Specifically, after each well was washed with PBS, 50 μL of an assay buffer (Hanks' balanced salt solution containing no calcium ion or magnesium ion that contained 1 mM of CaCl2 dihydrate, 20 mM of HEPES, and 0.1% BSA) containing calcium fluorescent indicator Calbryte™ 520 AM (produced by AAT Bioquest) in a final concentration of 4 μM was added, followed by incubating at 33° C. for 45 minutes. After washing with the assay buffer, 100 μL of the assay buffer was added to each well. This plate was set to FlexStation 3 (Molecular Devices, LLC), and a fluorescence intensity (excitation wavelength 490 nm, fluorescence wavelength 525 nm) at 31° C. was measured every two seconds, and 30 seconds after the start of the measurement, 100 μL of an assay buffer containing a test sample (allyl isothiocyanate (AITC) of positive control or rhein) which was prepared to have a certain final concentration or DMSO was added. Then, a well in which an assay buffer containing ionomycin (having a final concentration of 10 μM after the addition) instead of the test samples was added was also prepared as a reference for fluorescence intensity.
as §4, §5
The TRPA1 activation ability of each test sample was measured in the same manner as in the above (2) except the test was conducted with A-967079 (1 μM), which is a TRPA1-specific antagonist, or without A-967079. In addition, intracellular Ca^2+ imaging assay was conducted in the same manner as in the above (2) except that a hTRPV1 stably expressing cell line, a hTRPM8 stably expressing cell line, or a Mock cell was used instead of the hTRPA1 stably expressing cell line. Note that capsaicin was used as positive control for the hTRPV1 stably expressing cell line, and icilin was used as positive control for the hTRPM8 stably expressing cell line.
A TRPA1 activation ability was measured in the same manner as in the above (2) by using, as a test sample, rhein or compounds described in the following Table 10, which had anthraquinone structures similar to rhein, at a concentration of 200 μM of the test sample.

Human TRPM8 (hTRPM8) = target: T3, Human TRPM8 (hTRPM8) (Homo sapiens, UniProt Q7Z2W7); assay: TRPA1 Activation Test 2: intracellular Ca2+ imaging assay 2-2, hTRPM8 stably expressing cell line; type: cell-based; conditions: for TRPM8 activation rate: Table 9
T3 construct: expressed in transfected cells
Protocol: as §1, §2, §3, §4, §5, §6

T1 sequence (Q8NER1 whole entry): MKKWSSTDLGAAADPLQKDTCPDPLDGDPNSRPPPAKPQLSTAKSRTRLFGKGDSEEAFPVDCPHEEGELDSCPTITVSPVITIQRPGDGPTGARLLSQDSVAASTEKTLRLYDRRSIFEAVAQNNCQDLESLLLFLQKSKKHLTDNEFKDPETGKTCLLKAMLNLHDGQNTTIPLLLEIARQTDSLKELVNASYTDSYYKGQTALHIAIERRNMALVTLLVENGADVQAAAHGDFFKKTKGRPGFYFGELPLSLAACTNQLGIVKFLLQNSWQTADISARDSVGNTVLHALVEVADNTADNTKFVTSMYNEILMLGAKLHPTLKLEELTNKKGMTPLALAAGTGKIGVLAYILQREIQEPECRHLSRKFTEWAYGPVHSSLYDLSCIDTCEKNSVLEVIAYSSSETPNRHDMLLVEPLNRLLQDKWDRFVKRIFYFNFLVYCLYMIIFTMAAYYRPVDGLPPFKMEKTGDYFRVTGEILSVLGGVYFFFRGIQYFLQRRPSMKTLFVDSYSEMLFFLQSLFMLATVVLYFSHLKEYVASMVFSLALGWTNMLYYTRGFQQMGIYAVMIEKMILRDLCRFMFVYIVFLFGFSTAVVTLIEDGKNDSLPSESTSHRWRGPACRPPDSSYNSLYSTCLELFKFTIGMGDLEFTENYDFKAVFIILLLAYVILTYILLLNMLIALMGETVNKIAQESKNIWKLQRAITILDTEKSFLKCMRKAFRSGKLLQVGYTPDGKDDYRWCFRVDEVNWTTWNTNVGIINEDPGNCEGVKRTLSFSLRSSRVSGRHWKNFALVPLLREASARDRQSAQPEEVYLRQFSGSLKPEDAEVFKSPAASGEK
T2 sequence (O75762 whole entry): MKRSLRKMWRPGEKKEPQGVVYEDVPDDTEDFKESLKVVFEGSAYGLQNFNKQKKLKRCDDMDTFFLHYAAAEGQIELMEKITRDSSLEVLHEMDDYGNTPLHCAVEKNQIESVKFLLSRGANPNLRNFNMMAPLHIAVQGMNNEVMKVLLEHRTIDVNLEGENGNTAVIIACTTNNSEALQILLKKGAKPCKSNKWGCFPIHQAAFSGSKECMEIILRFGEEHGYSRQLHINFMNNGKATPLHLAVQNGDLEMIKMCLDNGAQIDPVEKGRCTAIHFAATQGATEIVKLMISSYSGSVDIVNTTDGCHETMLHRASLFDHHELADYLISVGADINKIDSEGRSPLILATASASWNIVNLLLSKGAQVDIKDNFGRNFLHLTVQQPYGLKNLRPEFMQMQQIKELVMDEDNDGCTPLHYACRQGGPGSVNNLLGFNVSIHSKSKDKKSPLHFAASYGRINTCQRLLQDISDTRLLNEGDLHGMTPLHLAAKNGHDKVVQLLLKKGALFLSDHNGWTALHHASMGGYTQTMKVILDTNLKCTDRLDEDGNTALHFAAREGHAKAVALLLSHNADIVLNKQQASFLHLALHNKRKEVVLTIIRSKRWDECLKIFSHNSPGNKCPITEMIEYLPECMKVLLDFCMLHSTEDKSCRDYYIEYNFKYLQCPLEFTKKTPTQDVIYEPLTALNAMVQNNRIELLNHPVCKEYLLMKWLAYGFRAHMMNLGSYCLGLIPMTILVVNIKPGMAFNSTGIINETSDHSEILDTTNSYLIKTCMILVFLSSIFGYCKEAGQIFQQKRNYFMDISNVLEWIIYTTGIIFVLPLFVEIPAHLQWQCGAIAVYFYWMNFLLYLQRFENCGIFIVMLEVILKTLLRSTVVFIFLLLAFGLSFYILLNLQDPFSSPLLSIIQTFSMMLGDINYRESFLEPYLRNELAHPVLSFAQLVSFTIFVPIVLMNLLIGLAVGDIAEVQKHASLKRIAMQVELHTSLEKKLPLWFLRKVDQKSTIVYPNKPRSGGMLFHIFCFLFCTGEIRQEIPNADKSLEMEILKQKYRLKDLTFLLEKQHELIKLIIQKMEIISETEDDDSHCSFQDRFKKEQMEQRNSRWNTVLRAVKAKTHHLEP
T3 sequence (Q7Z2W7 whole entry): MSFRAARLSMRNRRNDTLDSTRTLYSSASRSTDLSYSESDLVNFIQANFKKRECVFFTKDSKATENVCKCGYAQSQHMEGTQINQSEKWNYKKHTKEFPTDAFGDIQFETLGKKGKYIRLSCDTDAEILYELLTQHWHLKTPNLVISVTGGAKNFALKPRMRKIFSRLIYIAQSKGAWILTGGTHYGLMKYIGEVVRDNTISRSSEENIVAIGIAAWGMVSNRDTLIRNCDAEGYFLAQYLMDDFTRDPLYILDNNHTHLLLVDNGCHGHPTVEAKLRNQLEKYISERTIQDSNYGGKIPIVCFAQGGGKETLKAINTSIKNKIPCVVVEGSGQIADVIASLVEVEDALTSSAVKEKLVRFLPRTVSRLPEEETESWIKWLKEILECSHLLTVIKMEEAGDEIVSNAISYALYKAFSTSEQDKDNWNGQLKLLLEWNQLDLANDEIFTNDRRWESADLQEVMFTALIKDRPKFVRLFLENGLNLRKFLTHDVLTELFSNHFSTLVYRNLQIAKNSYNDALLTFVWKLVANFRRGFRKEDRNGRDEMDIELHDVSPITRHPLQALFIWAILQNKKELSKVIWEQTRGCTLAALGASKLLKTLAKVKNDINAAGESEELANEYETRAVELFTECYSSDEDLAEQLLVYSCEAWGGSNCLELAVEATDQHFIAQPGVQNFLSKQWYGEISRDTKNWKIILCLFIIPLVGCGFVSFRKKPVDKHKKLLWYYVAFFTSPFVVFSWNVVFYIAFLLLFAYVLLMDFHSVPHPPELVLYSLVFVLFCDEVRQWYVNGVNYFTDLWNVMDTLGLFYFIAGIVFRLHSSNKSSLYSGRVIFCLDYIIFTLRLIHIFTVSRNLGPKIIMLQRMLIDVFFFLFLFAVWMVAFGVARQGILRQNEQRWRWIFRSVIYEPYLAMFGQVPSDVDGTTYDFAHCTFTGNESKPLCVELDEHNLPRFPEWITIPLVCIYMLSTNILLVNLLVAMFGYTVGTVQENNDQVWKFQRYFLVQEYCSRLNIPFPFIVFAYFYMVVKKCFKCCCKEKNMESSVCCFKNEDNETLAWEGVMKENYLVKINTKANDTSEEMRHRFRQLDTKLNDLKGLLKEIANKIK

What does the source list for `O=C(O)c1cc(O)c2c(c1)C(=O)c1cccc(O)c1C2=O` [Rhein, rhein]?
Cumulative amounts of food ingested of mice (in words) ([1]; 100 μmol/kg body weight, FIG. 4): significantly increased; Cumulative amounts of food ingested of mice (in words) ([1]; oral, 300 μmol/kg body weight, 0.5 to 3 hours, FIG. 3): increased; TRPV1 activation (in words) (Human TRPV1 (hTRPV1); hTRPV1 stably expressing cell line): not activated; TRPV1 activation rate (Human TRPV1 (hTRPV1); test sample 100 μM): 2.40 ± 0.0395%; TRPV1 activation rate (Human TRPV1 (hTRPV1); test sample 200 μM): 5.49 ± 0.0830%; TRPA1 activating action with TRPA1-specific antagonist (in words) (Human TRPA1 (hTRPA1); A-967079): inhibited by the TRPA1-specific antagonist; TRPA1 activating action (in words) (Human TRPA1 (hTRPA1); hTRPA1 stably expressing cell line): activated TRPA1 in concentration dependent manner; TRPA1 activation rate (Human TRPA1 (hTRPA1); test sample 1 μM): 0.57 ± 0.0414%; TRPA1 activation rate (Human TRPA1 (hTRPA1); test sample 10 μM): 19.1 ± 1.00%; TRPA1 activation rate (Human TRPA1 (hTRPA1); test sample 25 μM): 41.1 ± 1.51%; TRPA1 activation rate (Human TRPA1 (hTRPA1); test sample 50 μM): 66.4 ± 1.45%; TRPA1 activation rate (Human TRPA1 (hTRPA1); test sample 75 μM): 69.7 ± 1.25%; TRPA1 activation rate, With antagonist (Human TRPA1 (hTRPA1); test sample 100 μM): 3.26 ± 0.102 %; TRPA1 activation rate (Human TRPA1 (hTRPA1); test sample 100 μM): 75.5 ± 1.19%; TRPA1 activation rate, Without antagonist (Human TRPA1 (hTRPA1); test sample 100 μM): 79.4 ± 4.08%; TRPA1 activation rate, With antagonist (Human TRPA1 (hTRPA1); test sample 200 μM): 8.40 ± 0.238 %; TRPA1 activation rate (Human TRPA1 (hTRPA1); test sample 200 μM): 85.7 ± 1.62%; TRPA1 activation rate, Without antagonist (Human TRPA1 (hTRPA1); test sample 200 μM): 82.1 ± 0.918%; TRPA1 activation rates (Human TRPA1 (hTRPA1); test sample 200 μM, Table 10): 85.7 ± 1.62%; TRPM8 activation (in words) (Human TRPM8 (hTRPM8); hTRPM8 stably expressing cell line): not activated; TRPM8 activation rate (Human TRPM8 (hTRPM8); test sample 100 μM): 2.52 ± 0.0847%; TRPM8 activation rate (Human TRPM8 (hTRPM8); test sample 200 μM): 5.71 ± 0.118%
